What was measured:
[1] = target: Proto-oncogene tyrosine-protein kinase Src (Homo sapiens) (UniProt P12931); assay: Binding affinity to human recombinant flag-tag c-Src protein (86 to 536 residues) expressed in Escherichia coli BL21 (DE3) cells assessed as change in melting temperature at 1:10 ratio incubated for 25 mins by protein thermal shift assay
[2] = target: Proto-oncogene tyrosine-protein kinase Src (Homo sapiens) (UniProt P12931); assay: Binding affinity to human recombinant flag-tag c-Src protein (86 to 536 residues) expressed in Escherichia coli BL21 (DE3) cells assessed as change in melting temperature at 1:5 ratio incubated for 25 mins by protein thermal shift assay
[3] = target: Proto-oncogene tyrosine-protein kinase Src (Homo sapiens) (UniProt P12931); assay: Binding affinity to human recombinant flag-tag c-Src protein (86 to 536 residues) expressed in Escherichia coli BL21 (DE3) cells assessed as change in melting temperature at 1:20 ratio incubated for 25 mins by protein thermal shift assay
[4] = target: Proto-oncogene tyrosine-protein kinase Src (Homo sapiens) (UniProt P12931); assay: Inhibition of human recombinant flag-tagged c-Src protein (86 to 536 residues) catalytic activity expressed in Escherichia coli BL21 (DE3) cells at 50 uM using biotinylated TK-substrate peptide as substrate preincubated for 1 hr followed by substrate addition and measured after 1 hr by HTRF assay relative to control; conditions: time 2.0 hrs

Sequence of Proto-oncogene tyrosine-protein kinase Src (Homo sapiens) (P12931 2-536 limits assumed): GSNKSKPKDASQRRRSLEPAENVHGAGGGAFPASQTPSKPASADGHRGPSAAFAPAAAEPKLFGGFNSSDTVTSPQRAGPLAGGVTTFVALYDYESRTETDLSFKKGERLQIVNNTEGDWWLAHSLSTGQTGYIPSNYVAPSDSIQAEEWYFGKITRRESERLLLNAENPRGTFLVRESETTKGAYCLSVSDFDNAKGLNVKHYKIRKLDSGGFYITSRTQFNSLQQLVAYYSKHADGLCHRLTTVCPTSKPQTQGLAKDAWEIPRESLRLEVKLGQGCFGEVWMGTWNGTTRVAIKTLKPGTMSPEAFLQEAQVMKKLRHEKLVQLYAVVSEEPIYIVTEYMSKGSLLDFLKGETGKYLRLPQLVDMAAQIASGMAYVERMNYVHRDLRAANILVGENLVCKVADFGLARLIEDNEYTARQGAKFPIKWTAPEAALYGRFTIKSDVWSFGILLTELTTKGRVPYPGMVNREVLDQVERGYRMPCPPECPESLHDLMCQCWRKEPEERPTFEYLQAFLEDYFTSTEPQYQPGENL

| Structure (SMILES) | ΔTm [1] [°C] | ΔTm [2] [°C] | ΔTm [3] [°C] | inhibition [4] [%] |
| --- | --- | --- | --- | --- |
| O=C(NC1CCCC1)C(c1ccc(F)cc1)N(C(=O)CCl)C1CC1 (stereo unspecified) | 2.56 | 1.5 | 3.3 | > 60 |
| O=C(NC1CCCC1)C(c1ccc(Cl)cc1)N(Cc1cccs1)C(=O)CCl (stereo unspecified) |  |  |  | > 60 |
| COc1ccc(C(C(=O)NC2CCCC2)N(CCC2=CCCCC2)C(=O)CCl)cc1 (stereo unspecified) |  |  |  | > 60 |
